Tested on: rat monocrotaline (MCT)-induced severe heart failure (pulmonary hypertension) model
Test: Survival rate in rat monocrotaline-induced pulmonary hypertension model
Format: in vivo
Details: 42 days after MCT; oral 50 mg/kg × twice/day from day 7
Description: The produced Formulation 21 (ONO-1301Lipo formulation) as a test substance was intermittently administered intravenously once weekly to a rat monocrotaline (MCT)-induced severe heart failure (pulmonary hypertension) model from day 7 of the MCT administration, and the survival rate was compared with a group in which compound (A) (ONO-1301) was repeatedly orally administered; a group in which compound (A) was intermittently administered intravenously once weekly; and, as a positive control, a group in which an ET-1 antagonist (bosentan) was orally administered. In the control group, physiological saline (vehicle) was administered once weekly by intravenous administration.
For animals, Slc: Wistar male rats, 5 weeks old at the start of the test, and 66.4 to 90.8 g at arrival (Japan SLC, Inc.) were used. Monocrotaline (hereinafter referred to as “MCT”), lot No.: SLBG1999V (Sigma-Aldrich Corporation), was administered once subcutaneously at the back of the rats at a dose of 60 mg/kg. Six days after the MCT administration, the animals were divided into groups according to the weight stratification assignment method (Table 19).

## COc1ccccc1Oc1c(NS(=O)(=O)c2ccc(C(C)(C)C)cc2)nc(-c2ncccn2)nc1OCCO [Bosentan]
  Survival rate (%): 30%

Source: patent US12569437B2, “Disease-site-specific liposomal formulation” (Osaka University, priority 2017, dated 2026)
